Non-standard residues stand in square brackets, D forms with d. Residues, ends and D or L forms follow the SMILES beside them. Groups on a side chain read outwards from the residue. *: point of attachment. Phe(4-NH2) = Nc1ccc(C[C@H](N)C(=O)O)cc1; X1 = CCCCCCN(CC(=O)*)C(=O)[C@H](N)CCCCN; Aib = CC(C)(N)C(=O)O; Sar = CNCC(=O)O
How the values were obtained:
Insulin Receptor [1] = biological target: T1, Insulin Receptor (Homo sapiens, UniProt P06213); test: Insulin receptor phosphorylation assay (receptor transfected HEK293 cells); assay type: cell-based; parameters: expressed in transfected cells; host or cells: HEK293; details: Table 10; IGF-1 receptor EC50 versus insulin receptor EC50
T1 sequence (P06213 28-758 limits assumed): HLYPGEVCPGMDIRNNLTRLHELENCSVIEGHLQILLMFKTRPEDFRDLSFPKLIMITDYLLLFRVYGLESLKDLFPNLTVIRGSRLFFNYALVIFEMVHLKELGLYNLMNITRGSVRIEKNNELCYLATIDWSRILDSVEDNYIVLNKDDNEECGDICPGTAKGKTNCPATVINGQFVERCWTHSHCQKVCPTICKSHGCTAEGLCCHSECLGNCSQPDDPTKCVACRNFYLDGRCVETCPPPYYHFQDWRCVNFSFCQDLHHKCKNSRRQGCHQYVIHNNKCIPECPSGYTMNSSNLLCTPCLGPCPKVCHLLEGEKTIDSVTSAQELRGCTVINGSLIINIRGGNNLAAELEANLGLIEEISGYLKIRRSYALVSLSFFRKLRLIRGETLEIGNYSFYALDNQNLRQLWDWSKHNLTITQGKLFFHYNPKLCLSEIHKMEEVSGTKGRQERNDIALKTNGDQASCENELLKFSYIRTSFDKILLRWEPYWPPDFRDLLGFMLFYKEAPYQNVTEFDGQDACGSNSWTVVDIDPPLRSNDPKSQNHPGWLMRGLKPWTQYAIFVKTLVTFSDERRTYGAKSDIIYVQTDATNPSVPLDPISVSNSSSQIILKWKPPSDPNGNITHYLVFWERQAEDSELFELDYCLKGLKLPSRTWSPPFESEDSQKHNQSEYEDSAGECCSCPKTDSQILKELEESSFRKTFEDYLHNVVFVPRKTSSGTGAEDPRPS
T1 sequence (P06213 763-1382 partner limits assumed): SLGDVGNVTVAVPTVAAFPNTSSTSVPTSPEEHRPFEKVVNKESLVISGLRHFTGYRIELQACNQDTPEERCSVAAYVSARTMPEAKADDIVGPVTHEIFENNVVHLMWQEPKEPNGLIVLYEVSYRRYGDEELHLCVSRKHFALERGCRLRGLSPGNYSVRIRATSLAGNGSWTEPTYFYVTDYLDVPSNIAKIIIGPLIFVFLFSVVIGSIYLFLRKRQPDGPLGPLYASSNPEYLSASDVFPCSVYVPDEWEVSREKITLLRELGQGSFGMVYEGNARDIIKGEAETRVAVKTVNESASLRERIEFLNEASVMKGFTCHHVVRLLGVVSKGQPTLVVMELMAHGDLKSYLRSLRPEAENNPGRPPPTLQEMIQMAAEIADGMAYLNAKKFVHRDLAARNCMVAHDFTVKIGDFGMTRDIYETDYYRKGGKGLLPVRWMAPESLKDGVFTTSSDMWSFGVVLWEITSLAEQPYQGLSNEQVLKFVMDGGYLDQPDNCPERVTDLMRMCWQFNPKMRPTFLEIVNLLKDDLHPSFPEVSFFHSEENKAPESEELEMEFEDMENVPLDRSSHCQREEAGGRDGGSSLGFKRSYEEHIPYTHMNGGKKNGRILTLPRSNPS

[2] = Dipeptide half life on IGF1 dipeptide extended (p-NH2-F)A19 amide derivatives in PBS (HPLC); assay type: physicochemical
Experimental: IGF-1 peptides was measured to determine the impact of the peptide sequence or heteroduplex on the dipeptide cleavage.
Accordingly, the IGF1A chain alone was determined to be a good model for the study of pro-drug half life on IGF1 B:A (Y^B16L^B17) derivative peptides. […] For simplicity, prodrug half lives were determined using only the IGF1 A chain in the absence of the B chain. The half lives of each propeptide was determined as described in Example 5.
The IGF^B16B17 derivative peptide prodrugs were incubated in PBS, pH 7.4 at 37° C. and at predetermined time intervals an aliquot was taken and further degradation was quenched with 0.1% TFA and the aliquot was subjected to analytical HPLC analysis. Peaks a and b, representing the prodrug and active forms of the IGF^B16B17 derivative peptide were identified with LC-MS and quantified by integration of peak area an HPLC. FIGS. 9A-9C show the output of an HPLC analysis of the degradation of the IGF^B16B17 derivativepeptide prodrug: IGF1A(Ala)^6,7,11,20(Aib-Pro-pNH-F)^19. Aliquots were taken at 20 minutes (FIG. 9A), 81 minutes (FIG. 9B) and 120 minutes (FIG. 9C) after beginning the incubation of the prodrug in PBS.

Insulin Receptor [3] = biological target: T1, Insulin Receptor; test: Insulin receptor binding assay (competition, scintillation proximity); details: compared with native insulin

| Structure (SMILES) | Selective Ratio (Insulin Receptor [1]) | Half Life ([2]; buffer) | Half Life, PBS ([2]; buffer) | other results |
| --- | --- | --- | --- | --- |
| CC[C@H](C)[C@H](NC(=O)CN)C(=O)N[C@H](C(=O)N[C@@H](CC(=O)O)C(=O)N[C@@H](CCC(=O)O)C(=O)N[C@H]1CSSC[C@@H]2NC(=O)[C@H](CO)NC(=O)[C@H](C)NC(=O)[C@H](Cc3c[nH]cn3)NC(=O)[C@H](CSSC[C@H](NC(=O)[C@H](CC(C)C)NC(=O)[C@H](Cc3c[nH]cn3)NC(=O)[C@H](CCC(=O)O)NC(=O)[C@@H]3CCCN3C(=O)CN)C(=O)NCC(=O)N[C@@H](C)C(=O)N[C@@H](CC(=O)O)C(=O)N[C@@H](CC(C)C)C(=O)N[C@@H](C(C)C)C(=O)N[C@@H](CC(=O)O)C(=O)N[C@@H](C)C(=O)N[C@@H](CC(C)C)C(=O)N[C@@H](Cc3ccc(O)cc3)C(=O)N[C@@H](CC(C)C)C(=O)N[C@@H](C(C)C)C(=O)N[C@H](C(=O)NCC(=O)N[C@@H](CC(=O)O)C(=O)N[C@@H](C)C(=O)NCC(=O)N[C@@H](Cc3ccccc3)C(=O)N[C@@H](Cc3ccc(O)cc3)C(N)=O)CSSC[C@@H](C(=O)N[C@@H](CC(N)=O)C(=O)O)NC(=O)[C@H](Cc3ccc(O)cc3)NC(=O)[C@H](CCSC)NC(=O)[C@H](CCC(=O)O)NC(=O)[C@H](CC(C)C)NC(=O)[C@H](CCCNC(=N)N)NC(=O)[C@H](CCCNC(=N)N)NC(=O)[C@H](CC(C)C)NC(=O)[C@H](CC(=O)O)NC2=O)NC1=O)C(C)C | 32.54 |  |  |  |
| CC[C@H](C)[C@H](NC(=O)CN)C(=O)N[C@H](C(=O)N[C@@H](CC(=O)O)C(=O)N[C@@H](CCC(=O)O)C(=O)N[C@H]1CSSC[C@@H]2NC(=O)[C@H](CO)NC(=O)[C@H](C)NC(=O)[C@H](Cc3c[nH]cn3)NC(=O)[C@H](CSSC[C@H](NC(=O)[C@H](CC(C)C)NC(=O)[C@H](Cc3c[nH]cn3)NC(=O)[C@H](CCC(=O)O)NC(=O)[C@@H]3CCCN3C(=O)CN)C(=O)NCC(=O)N[C@@H](C)C(=O)N[C@@H](CC(=O)O)C(=O)N[C@@H](CC(C)C)C(=O)N[C@@H](C(C)C)C(=O)N[C@@H](CC(=O)O)C(=O)N[C@@H](C)C(=O)N[C@@H](CC(C)C)C(=O)N[C@@H](Cc3ccc(O)cc3)C(=O)N[C@@H](CC(C)C)C(=O)N[C@@H](C(C)C)C(=O)N[C@H](C(=O)NCC(=O)N[C@@H](CC(=O)O)C(=O)N[C@@H](CCCNC(=N)N)C(=O)NCC(=O)N[C@@H](Cc3ccccc3)C(=O)N[C@@H](Cc3ccc(O)cc3)C(N)=O)CSSC[C@@H](C(=O)N[C@@H](CC(N)=O)C(=O)O)NC(=O)[C@H](Cc3ccc(O)cc3)NC(=O)[C@H](CCSC)NC(=O)[C@H](CCC(=O)O)NC(=O)[C@H](CC(C)C)NC(=O)[C@H](CCCNC(=N)N)NC(=O)[C@H](CCCNC(=N)N)NC(=O)[C@H](CC(C)C)NC(=O)[C@H](CC(=O)O)NC2=O)NC1=O)C(C)C | 2.81 |  |  |  |
| CC[C@H](C)[C@H](NC(=O)CN)C(=O)N[C@H](C(=O)N[C@@H](CC(=O)O)C(=O)N[C@@H](CCC(=O)O)C(=O)N[C@@H](C)C(=O)N[C@@H](C)C(=O)N[C@@H](Cc1ccccc1)C(=O)N[C@@H](CCCNC(=N)N)C(=O)N[C@@H](CO)C(=O)N[C@@H](C)C(=O)N[C@@H](CC(=O)O)C(=O)N[C@@H](CC(C)C)C(=O)N[C@@H](CCCNC(=N)N)C(=O)N[C@@H](CCCNC(=N)N)C(=O)N[C@@H](CC(C)C)C(=O)N[C@@H](CCC(=O)O)C(=O)N[C@@H](CCSC)C(=O)N[C@@H](Cc1ccc(NC(=O)[C@@H]2CCCN2C(=O)C(C)(C)N)cc1)C(=O)N[C@@H](C)C(=O)N[C@@H](C)C(N)=O)C(C)C [AiB Pro] (H-GIVDEAAFRSADLRRLEM[Phe(4-NH2)]([Pro-Aib])AA-NH2) |  | 2.2 h | 2.2 h | degradation of prodrug to active form (HPLC), in words ([2]; pH 7.4): spontaneous, non-enzymatic conversion |
| CC[C@H](C)[C@H](NC(=O)CN)C(=O)N[C@H](C(=O)N[C@@H](CC(=O)O)C(=O)N[C@@H](CCC(=O)O)C(=O)N[C@@H](C)C(=O)N[C@@H](C)C(=O)N[C@@H](Cc1ccccc1)C(=O)N[C@@H](CCCNC(=N)N)C(=O)N[C@@H](CO)C(=O)N[C@@H](C)C(=O)N[C@@H](CC(=O)O)C(=O)N[C@@H](CC(C)C)C(=O)N[C@@H](CCCNC(=N)N)C(=O)N[C@@H](CCCNC(=N)N)C(=O)N[C@@H](CC(C)C)C(=O)N[C@@H](CCC(=O)O)C(=O)N[C@@H](CCSC)C(=O)N[C@@H](Cc1ccc(NC(=O)[C@H]2CCCN2C(=O)C(C)(C)N)cc1)C(=O)N[C@@H](C)C(=O)N[C@@H](C)C(N)=O)C(C)C [AiB dPro] (H-GIVDEAAFRSADLRRLEM[Phe(4-NH2)]([dP-Aib])AA-NH2) |  | 1.9 h | 2.1 h |  |
| CC[C@H](C)[C@H](NC(=O)CNC(=O)[C@@H]1CCCN1C(=O)[C@H](C)N)C(=O)N[C@H](C(=O)N[C@@H](CC(=O)O)C(=O)N[C@@H](CCC(=O)O)C(=O)N[C@H]1CSSC[C@@H]2NC(=O)[C@H](CO)NC(=O)[C@H](CCCNC(=N)N)NC(=O)[C@H](Cc3ccccc3)NC(=O)[C@H](CSSC[C@H](NC(=O)[C@H](CC(C)C)NC(=O)[C@@H](NC(=O)[C@H](CCC(=O)O)NC(=O)[C@@H]3CCCN3C(=O)CN)[C@@H](C)O)C(=O)NCC(=O)N[C@@H](C)C(=O)N[C@@H](CCC(=O)O)C(=O)N[C@@H](CC(C)C)C(=O)N[C@@H](C(C)C)C(=O)N[C@@H](CC(=O)O)C(=O)N[C@@H](C)C(=O)N[C@@H](CC(C)C)C(=O)N[C@@H](Cc3ccc(O)cc3)C(=O)N[C@@H](CC(C)C)C(=O)N[C@@H](C(C)C)C(=O)N[C@H](C(=O)NCC(=O)N[C@@H](CC(=O)O)C(=O)N[C@@H](CCCNC(=N)N)C(=O)NCC(=O)N[C@@H](Cc3ccccc3)C(=O)N[C@@H](Cc3ccc(O)cc3)C(=O)N[C@@H](Cc3ccccc3)C(=O)N[C@@H](CC(N)=O)C(=O)N[C@@H](CCCCN)C(=O)N3CCC[C@H]3C(=O)N[C@H](C(N)=O)[C@@H](C)O)CSSC[C@@H](C(=O)N[C@@H](C)C(N)=O)NC(=O)[C@H](Cc3ccc(O)cc3)NC(=O)[C@H](CCSC)NC(=O)[C@H](CCC(=O)O)NC(=O)[C@H](CC(C)C)NC(=O)[C@H](CCCNC(=N)N)NC(=O)[C@H](CCCNC(=N)N)NC(=O)[C@H](CC(C)C)NC(=O)[C@H](CC(=O)O)NC2=O)NC1=O)C(C)C [IGF1(Y^B16L^B17)(AlaPro)^A-1,0] |  |  |  | insulin receptor binding, in words (Insulin Receptor [3]): substantially reduced affinity for the insulin receptor |
| CC[C@H](C)[C@H](NC(=O)CN)C(=O)N[C@H](C(=O)N[C@@H](CC(=O)O)C(=O)N[C@@H](CCC(=O)O)C(=O)N[C@H]1CSSC[C@@H]2NC(=O)[C@H](CO)NC(=O)[C@H](CCCNC(=N)N)NC(=O)[C@H](Cc3ccccc3)NC(=O)[C@H](CSSC[C@H](NC(=O)[C@H](CC(C)C)NC(=O)[C@@H](NC(=O)[C@H](CCC(=O)O)NC(=O)[C@@H]3CCCN3C(=O)CN)[C@@H](C)O)C(=O)NCC(=O)N[C@@H](C)C(=O)N[C@@H](CC(=O)O)C(=O)N[C@@H](CC(C)C)C(=O)N[C@@H](C(C)C)C(=O)N[C@@H](CC(=O)O)C(=O)N[C@@H](C)C(=O)N[C@@H](CC(C)C)C(=O)N[C@@H](Cc3ccc(O)cc3)C(=O)N[C@@H](CC(C)C)C(=O)N[C@@H](C(C)C)C(=O)N[C@H](C(=O)NCC(=O)N[C@@H](CC(=O)O)C(=O)N[C@@H](CCCNC(=N)N)C(=O)NCC(=O)N[C@@H](Cc3ccccc3)C(=O)N[C@@H](Cc3ccc(O)cc3)C(N)=O)CSSC[C@@H](C(=O)N[C@@H](C)C(=O)O)NC(=O)[C@H](Cc3ccc(O)cc3)NC(=O)[C@H](CCSC)NC(=O)[C@H](CCC(=O)O)NC(=O)[C@H](CC(C)C)NC(=O)[C@H](CCCNC(=N)N)NC(=O)[C@H](CCCNC(=N)N)NC(=O)[C@H](CC(C)C)NC(=O)[C@H](CC(=O)O)NC2=O)NC1=O)C(C)C [IGF-1 A:B(D10Y16L17) DPI A-COOH] | 9.75 |  |  |  |
| CC[C@H](C)[C@H](NC(=O)CN)C(=O)N[C@H](C(=O)N[C@@H](CC(=O)O)C(=O)N[C@@H](CCC(=O)O)C(=O)N[C@@H](C)C(=O)N[C@@H](C)C(=O)N[C@@H](Cc1ccccc1)C(=O)N[C@@H](CCCNC(=N)N)C(=O)N[C@@H](CO)C(=O)N[C@@H](C)C(=O)N[C@@H](CC(=O)O)C(=O)N[C@@H](CC(C)C)C(=O)N[C@@H](CCCNC(=N)N)C(=O)N[C@@H](CCCNC(=N)N)C(=O)N[C@@H](CC(C)C)C(=O)N[C@@H](CCC(=O)O)C(=O)N[C@@H](CCSC)C(=O)N[C@@H](Cc1ccc(NC(=O)CN(C)C(=O)[C@@H](N)CCCCN)cc1)C(=O)N[C@@H](C)C(=O)N[C@@H](C)C(N)=O)C(C)C [K Sar] (H-GIVDEAAFRSADLRRLEM[Phe(4-NH2)]([Sar-Lys])AA-NH2) |  | 21.8 h | 21.8 h |  |
| CCCCCCN(CC(=O)Nc1ccc(C[C@H](NC(=O)[C@H](CCSC)NC(=O)[C@H](CCC(=O)O)NC(=O)[C@H](CC(C)C)NC(=O)[C@H](CCCNC(=N)N)NC(=O)[C@H](CCCNC(=N)N)NC(=O)[C@H](CC(C)C)NC(=O)[C@H](CC(=O)O)NC(=O)[C@H](C)NC(=O)[C@H](CO)NC(=O)[C@H](CCCNC(=N)N)NC(=O)[C@H](Cc2ccccc2)NC(=O)[C@H](C)NC(=O)[C@H](C)NC(=O)[C@H](CCC(=O)O)NC(=O)[C@H](CC(=O)O)NC(=O)[C@@H](NC(=O)[C@@H](NC(=O)CN)[C@@H](C)CC)C(C)C)C(=O)N[C@@H](C)C(=O)N[C@@H](C)C(N)=O)cc1)C(=O)[C@H](N)CCCCN [dK N-hexyl Gly] (H-GIVDEAAFRSADLRRLEM[Phe(4-NH2)](X1)AA-NH2; N-terminus assumed) |  |  |  | half-life ([2]; buffer, pH 7.4): 10.6 h |
